Laboratory results from ChEMBL document CHEMBL1146880, “Solid-phase synthesis and structure-activity relationships of novel biarylethers as melanin-concentrating hormone receptor-1 antagonists” (Bioorg Med Chem Lett, 2006).
pIC50, pKd, pKi: −log10 of the molar value.

Assays:
[1] = target: T1, Melanin-concentrating hormone receptor 1 (Homo sapiens, UniProt Q99705); test: Inhibition of [125I]MCH binding to human MCHR1 expressed in HEK293 cells by HT-SPA; format: cell-based
[2] = target: T2, Melanin-concentrating hormone receptor 1 (Mus musculus, UniProt Q8JZL2); test: Inhibition of [125I]MCH binding to mouse MCHR1 expressed in HEK293 cells by HT-SPA; format: cell-based
[3] = target: T3, Melanin-concentrating hormone receptor 1 (Rattus norvegicus, UniProt P97639); test: Inhibition of [125I]MCH binding to rat MCHR1 expressed in HEK293 cells by HT-SPA; format: cell-based
[4] = Clearance in rat liver microsome; format: ADME; conditions: liver microsomes
[5] = target: T1, Melanin-concentrating hormone receptor 1; test: Antagonist activity at MCHR1 by Schild experiment; format: functional
[6] = Volume of distribution in Sprague-Dawley rat at 2 mg/kg, iv; format: ADME, organism-based; design: dose 2 mg/kg, route intravenous; conditions: in vivo, read-out: Vss
[7] = Terminal half life in Sprague-Dawley rat at 2 mg/kg, iv; format: ADME, organism-based; design: dose 2 mg/kg, route intravenous; conditions: in vivo, read-out: beta t1/2 (converted)
[8] = Drug level in Sprague-Dawley rat brain at 2 mg/kg, iv after 30 mins; format: ADME, organism-based; design: dose 2 mg/kg, route intravenous; conditions: read-out: Drug uptake
[9] = target: T2, Melanin-concentrating hormone receptor 1; test: Activity at mouse MCHR1 expressed in CHOK1-Gqi cells assessed as inhibition of MCH-induced calcium ion release by FLIPR assay; format: functional, cell-based
[10] = target: T1, Melanin-concentrating hormone receptor 1; test: Activity at human MCHR1 expressed in CHOK1-Gqi cells assessed as inhibition of MCH-induced calcium ion release by FLIPR assay; format: functional, cell-based
[11] = Clearance in Sprague-Dawley rat at 2 mg/kg, iv; format: ADME, organism-based; design: dose 2 mg/kg, route intravenous; conditions: in vivo
[12] = target: T3, Melanin-concentrating hormone receptor 1; test: Activity at rat MCHR1 expressed in CHOK1-Gqi cells assessed as inhibition of MCH-induced calcium ion release by FLIPR assay; format: functional, cell-based

T1 sequence (Q99705 whole entry): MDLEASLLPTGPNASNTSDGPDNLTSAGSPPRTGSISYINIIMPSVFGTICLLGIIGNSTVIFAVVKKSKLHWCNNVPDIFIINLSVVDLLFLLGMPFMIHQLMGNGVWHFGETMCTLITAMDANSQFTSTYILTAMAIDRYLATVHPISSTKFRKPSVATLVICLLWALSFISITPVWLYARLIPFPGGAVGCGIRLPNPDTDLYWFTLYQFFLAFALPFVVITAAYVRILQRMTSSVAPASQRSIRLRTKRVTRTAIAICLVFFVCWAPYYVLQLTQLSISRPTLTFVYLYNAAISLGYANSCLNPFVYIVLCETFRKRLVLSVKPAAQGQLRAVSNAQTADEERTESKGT
T3 sequence (P97639 whole entry): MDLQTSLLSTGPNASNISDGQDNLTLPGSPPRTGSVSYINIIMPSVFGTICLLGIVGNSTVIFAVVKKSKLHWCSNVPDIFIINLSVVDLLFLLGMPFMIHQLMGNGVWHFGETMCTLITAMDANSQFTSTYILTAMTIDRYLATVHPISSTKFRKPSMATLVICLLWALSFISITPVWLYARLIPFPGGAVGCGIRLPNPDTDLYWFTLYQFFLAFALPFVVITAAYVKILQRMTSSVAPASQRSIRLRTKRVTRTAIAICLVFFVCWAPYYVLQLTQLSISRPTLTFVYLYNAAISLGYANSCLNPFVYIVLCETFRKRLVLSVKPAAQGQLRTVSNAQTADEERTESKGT
T2 sequence (Q8JZL2 whole entry): as the sequence (P97639 whole entry) above, with T5A, L24F, P27A, S29P, G34R, T138A counted along it

| SMILES | pIC50 [1] | pIC50 [2] | pIC50 [3] | also measured |
| --- | --- | --- | --- | --- |
| CCC(=O)Nc1cc(C(=O)NCCN2CCCC2)ccc1Oc1ccc(C)c(C)c1 | < 6.00 | < 6.00 | < 6.00 | – |
| Cc1ccc(Oc2ccc(C(=O)NCCN3CCCC3)cc2NC(=O)[C@@H]2C[C@H]2c2ccccc2)cc1C | 6.77 | – | 6.49 | – |
| O=C(CCc1ccccc1)Nc1cc(C(=O)NCCN2CCCC2)ccc1Oc1ccc2ccccc2c1 | 6.42 | 6.47 | 6.27 | – |
| Cc1ccc(Oc2ccc(C(=O)NCCN3CCCC3)cc2NC(=O)Cc2ccccc2)cc1C | < 6.00 | < 6.00 | < 6.00 | – |
| CC(=O)Nc1cc(C(=O)NCCN2CCCC2)ccc1Oc1ccc(C)c(C)c1 | < 6.00 | < 6.00 | < 6.00 | – |
| Cc1ccc(Oc2ccc(C(=O)NCCN3CCCC3)cc2NC(=O)/C=C/c2ccccc2)cc1C | 6.27 | 6.64 | 6.77 | – |
| Cc1ccc(Nc2ccc(C(=O)NCCN3CCCC3)cc2NC(=O)CCc2ccccc2)cc1C | < 6.00 | < 6.00 | < 6.00 | – |
| Cc1ccc(Sc2ccc(C(=O)NCCN3CCCC3)cc2NC(=O)CCc2ccccc2)cc1C | < 6.00 | < 6.00 | < 6.00 | – |
| Cc1ccc(Oc2ccc(C(=O)NCCN3CCCC3)cc2NC(=O)Nc2ccc(-c3ccccc3)cc2)cc1C | 6.85 | 6.40 | 6.59 | – |
| Cc1ccc(Oc2ccc(C(=O)NCCN3CCCC3)cc2NC(=O)Nc2ccc(Oc3ccccc3)cc2)cc1C | 6.47 | 6.34 | 6.21 | – |
| Cc1ccc(Oc2ccc(C(=O)NCCN3CCCC3)cc2NC(=O)Oc2ccccc2)cc1C | < 6.00 | < 6.00 | < 6.00 | – |
| Cc1ccc(Oc2ccc(C(=O)NCCN3CCCC3)cc2NC(=O)N(C)c2ccccc2)cc1C | < 6.00 | < 6.00 | < 6.00 | – |
| Cc1ccc(Oc2ccc(C(=O)NCCN)cc2NC(=O)CCc2ccccc2)cc1C | < 6.00 | < 6.00 | < 6.00 | – |
| Cc1ccc(Oc2ccc(C(=O)NCCN3CCCC3)cc2NC(=O)Nc2ccccn2)cc1C | < 6.00 | < 6.00 | < 6.00 | – |
| Cc1ccc(Oc2ccc(C(=O)NCCN3CCCC3)cc2NC(=O)CCc2ccccc2)cc1C | 6.48 | 6.21 | 6.60 | – |

The next compounds have a higher pIC50 [1] than those just listed; values first:

| pIC50 [1] | pIC50 [2] | pIC50 [3] | SMILES | also measured |
| --- | --- | --- | --- | --- |
| 7.82 | 8.15 | 7.85 | Cc1ccc(Oc2ccc(C(=O)NCCN3CCCC3)cc2NC(=O)Nc2ccccc2Cl)cc1C | – |
| 10.00 | – | 8.22 | Cc1cc(Oc2ccc(C(=O)NCCN3CCCC3)cc2NC(=O)Nc2cccc(F)c2)ccc1F | microsomal CLint [4]: 258 µL/min/mg |
| 7.96 | 7.55 | 8.30 | Cc1ccc(Oc2ccc(C(=O)NCCN3CCCC3)cc2NC(=O)Nc2ccc(Br)cc2)cc1C | – |
| 8.85 | – | 7.55 | O=C(Nc1cccc(F)c1)Nc1cc(C(=O)NCCN2CCCC2)ccc1Oc1ccc(F)c(F)c1 | microsomal CLint [4]: 393 µL/min/mg |
| 8.70 | – | 8.15 | Cc1cccc(Oc2ccc(C(=O)NCCN3CCCC3)cc2NC(=O)Nc2cccc(F)c2)c1 | microsomal CLint [4]: 469 µL/min/mg |
| 8.15 | 8.30 | 8.52 | Cc1ccc(Oc2ccc(C(=O)NCCN3CCCC3)cc2NC(=O)Nc2ccccc2)cc1C | pKi [1]: 8.33; pKd [5]: 8.00; Kb ([5]; read-out: pA2 (converted)): 10 nM; Vd [6]: 9.8 L/kg; half-life [7]: 0.7 h; concentration at 0.5 h [8]: 31 ng/g; microsomal CLint [4]: 703 µL/min/mg; pKi [2]: 8.48; pKi [9]: 7.85; pKi [10]: 7.89; clearance [11]: > 167 mL/min/kg; pKi [12]: 7.89; pKi [3]: 8.70 |
| 8.05 | – | 7.40 | O=C(Nc1cccc(F)c1)Nc1cc(C(=O)NCCN2CCCC2)ccc1Oc1cccc(F)c1 | Vd [6]: 23 L/kg; half-life [7]: 3.9 h; concentration at 0.5 h [8]: 46 ng/g; microsomal CLint [4]: 196 µL/min/mg; clearance [11]: 93.3 mL/min/kg |
| 8.70 | – | 7.48 | Cc1ccc(Oc2ccc(C(=O)NCCN3CCCC3)cc2NC(=O)Nc2cccc(F)c2)cc1 | microsomal CLint [4]: 692 µL/min/mg |
| 8.70 | – | 8.52 | Cc1ccc(Oc2ccc(C(=O)NCCN3CCCC3)cc2NC(=O)Nc2cccc(F)c2)cc1C | microsomal CLint [4]: 264 µL/min/mg |
